From patent publication US5811427A (priority 1997, dated 1998)

What was measured:
Pythium ultimum = assay: Fungitoxicity against Pythium ultimum (inhibition of mycelial growth in liquid broth); assay type: cell-based; conditions: Globisporangium ultimum, 48 hours at 25° C. with shaking, asparagine-sucrose broth, read-out: % Inhibition of growth (increase in mycelial dry weight) as compared to controls
Procedure: Compounds were tested for fungitoxicity against Pythium ultimum according to the procedures set forth below.
Test compounds were dissolved in dimethylsulfoxide at 20 mg/ml and 0.1 ml was added to 19.9 ml of a liquid asparagine-sucrose broth, prepared according to the method described in Erwin, D. C., and Katznelson, K., Canadian Journal of Microbiology 7, 15 (1971), in 9 cm petri dishes to give a concentration of 100 ppm of the compound. Each plate was inoculated with a mycelial plug, 7 mm in diameter, taken from the growing edge of a culture of Pythium ultimum grown on potato dextrose agar. Two replicate plates were used for each treatment. After growth for 48 hours at 25° C. with shaking on a gyrotary shaker at 60 rpm, the increase in mycelial dry weight was determined. Fungitoxicity was recorded as percent inhibition of growth as compared to controls lacking the test compounds.

Phytophthora infestans = assay: whole plant or invertebrate; assay type: in vivo; conditions: in Solanum lycopersicum, 144 h, read-out: percent disease control, TLB
[1] = test system: Pseudoperonospora cubensis; conditions: in vivo
Plasmopara viticola = assay type: in vivo; conditions: 7-8 days at 20° C.

| Compound | inhibition at 100 ppm (Pythium ultimum) [%] | pest or weed control at 375 ppm (Phytophthora infestans) [%] | pest or weed control at 750 ppm (Phytophthora infestans) [%] | percent disease control, CDM [1] [%] | pest or weed control at 300 ppm (Phytophthora infestans) [%] | percent disease control, GDM (Plasmopara viticola) [%] |
| --- | --- | --- | --- | --- | --- | --- |
| CCC(C)(NC(=O)c1ccc2ncoc2c1)C(=O)CCl (stereo not shown) [Compound 1] | 89.4 | 100 |  |  |  |  |
| CCC(C)(NC(=O)c1ccc2[nH]ccc2c1)C(=O)C(Cl)Cl (stereo not shown) [Compound 5] | 66.9 |  | 0 | 50 |  |  |
| CCC(C)(NC(=O)c1ccc2c(c1)CCO2)C(=O)C(Cl)Cl (stereo not shown) [Compound 7] | 94.5 |  |  |  |  |  |
| CCC(C)(NC(=O)c1cc(Cl)c2ncoc2c1)C(=O)CCl (stereo not shown) [Compound 3] | 92 |  |  |  | 100 | 100 |
| CCC(C)(NC(=O)c1ccc2c(c1)CCO2)C(=O)CCl (stereo not shown) [Compound 9] | 91.6 |  |  |  | 100 | 0 |
| CCC(C)(NC(=O)c1ccc2[nH]ccc2c1)C(=O)CCl (stereo not shown) [Compound 6] | 88.6 |  |  |  | 100 | 100 |
| CCC(C)(NC(=O)c1cc(Cl)c2nc(C)oc2c1)C(=O)CCl (stereo not shown) [Compound 12] | 90.7 |  |  |  | 95 | 90 |
| CCC(C)(NC(=O)c1ccc2ncsc2c1)C(=O)CCl (stereo not shown) [Compound 4] | 94.2 |  |  | 50 | 100 |  |
| CCC(C)(NC(=O)c1ccc2ocnc2c1)C(=O)CCl (stereo not shown) [Compound 8] | 93.7 |  |  |  | 90 | 100 |
| CCC(C)(NC(=O)c1ccc2nc(C)oc2c1)C(=O)C(Cl)Cl (stereo not shown) [Compound 14] | 94.5 |  |  |  |  |  |
